Measurements: patent US20090197880A1 (Genelabs Technologies, Inc., priority 2007, published 2009)

Experiment: HCV replicon assay (luciferase) in ET (Huh-lucubineo-ET) cell line
Format: cell-based
Conditions: Hepatitis C virus; tested at 10 μM; inhibition of replication relative to no compound control; ET replicon cells, luciferase 48-72 hours; read-out: % inhition at 10 μM

Row | Compound | inhibition at 10 µM [%]
1 | CCCOc1ccc(-c2ccc(-c3cc(Cn4cc5nc(-c6cccc(F)c6F)nc-5cn4)on3)cc2)cc1 [Compound 269, 2-(2,3-Difluoro-phenyl)-5-[3-(4′-propoxy-biphenyl-4-yl)-isoxazol-5-ylmethyl]-5H-imidazo[4,5-d]pyridazine] | 36.6
2 | O=C(COc1ccc(-c2cc(Cn3cc4nc(-c5cccc(F)c5F)nc-4cn3)on2)cc1)NC1CC1 [Compound 271, N-Cyclopropyl-2-(4-{5-[2-(2,3-difluoro-phenyl)-imidazo[4,5-d]pyridazin-5-ylmethyl]-isoxazol-3-yl}-phenoxy)-acetamide] | 2.27
3 | CC(=O)OCCCOc1ccc(-c2cc(Cn3cc4nc(-c5cccc(F)c5F)nc-4cn3)on2)cc1 [Compound 272, Acetic Acid 3-(4-{5-[2-(2,3-difluoro-phenyl)-imidazo[4,5-d]pyridazin-5-ylmethyl]-isoxazol-3-yl}-phenoxy)-propyl Ester] | 91.1
4 | Fc1cccc(-c2nc3cnn(Cc4cc(-c5ccc(OCCCN6CCOCC6)cc5)no4)cc-3n2)c1F [Compound 273, 2-(2,3-Difluoro-phenyl)-5-{3-[4-(3-morpholin-4-yl-propoxy)-phenyl]-isoxazol-5-ylmethyl}-5H-imidazo[4,5-d]pyridazine] | 94
5 | O=C(O)CCCOc1ccc(-c2cc(Cn3cc4nc(-c5cccc(F)c5F)nc-4cn3)on2)cc1 [Compound 274, 4-(4-{5-[2-(2,3-Difluoro-phenyl)-imidazo[4,5-d]pyridazin-5-ylmethyl]-isoxazol-3-yl}-phenoxy)-butyric Acid] | 54.9
6 | Fc1ccccc1-c1nc2cnn(Cc3cc(-c4cccc(C(F)(F)F)c4)no3)cc-2n1 [Compound 276, 2-(2-Fluoro-phenyl)-5-[3-(3-trifluoromethyl-phenyl)-isoxazol-5-ylmethyl]-5H-imidazo[4,5-d]pyridazine] | 60
7 | CCCCc1ccc(-c2cc(Cn3cc4nc(-c5ccccc5F)nc-4cn3)on2)cc1 [Compound 277, 5-[3-(4-Butyl-phenyl)-isoxazol-5-ylmethyl]-2-(2-fluoro-phenyl)-5H-imidazo[4,5-d]pyridazine] | 99.9
8 | Fc1ccccc1-c1nc2cnn(Cc3cc(-c4ccc(C(F)(F)F)cc4)no3)cc-2n1 [Compound 278, 2-(2-Fluoro-phenyl)-5-[3-(4-trifluoromethyl-phenyl)-isoxazol-5-ylmethyl]-5H-imidazo[4,5-d]pyridazine] | 99.7
9 | Fc1cc(C(F)(F)F)ccc1-c1cc(Cn2cc3nc(-c4ccccc4F)nc-3cn2)on1 [Compound 279, 2-(2-Fluoro-phenyl)-5-[3-(2-fluoro-4-trifluoromethyl-phenyl)-isoxazol-5-ylmethyl]-5H-imidazo[4,5-d]pyridazine] | 98.9
10 | Fc1ccccc1-c1nc2cnn(Cc3cc(-c4ccc(I)cc4)no3)cc-2n1 [Compound 282, 2-(2-Fluoro-phenyl)-5-[3-(4-iodo-phenyl)-isoxazol-5-ylmethyl]-5H-imidazo[4,5-d]pyridazine] | 83.4
11 | CC(C)(C)c1ccc(-c2cc(Cn3cc4nc(-c5ccccc5F)nc-4cn3)on2)cc1 [Compound 283, 5-[3-(4-tert-Butyl-phenyl)-isoxazol-5-ylmethyl]-2-(2-fluoro-phenyl)-5H-imidazo[4,5-d]pyridazine] | 66.7
12 | N#Cc1ccc(-c2cc(Cn3cc4nc(-c5ccccc5F)nc-4cn3)on2)cc1 [Compound 284, 4-{5-[2-(2-Fluoro-phenyl)-imidazo[4,5-d]pyridazin-5-ylmethyl]-isoxazol-3-yl}-benzonitrile] | 77.4
13 | Fc1ccccc1-c1nc2cnn(Cc3cc(-c4ccc(Br)cc4)no3)cc-2n1 [Compound 285, 5-[3-(4-Bromo-phenyl)-isoxazol-5-ylmethyl]-2-(2-fluoro-phenyl)-5H-imidazo[4,5-d]pyridazine] | 90.1
14 | Fc1ccccc1-c1nc2cnn(Cc3cc(-c4ccc(Br)cn4)no3)cc-2n1 [Compound 289, 5-[3-(5-Bromo-pyridin-2-yl)-isoxazol-5-ylmethyl]-2-(2-fluoro-phenyl)-5H-imidazo[4,5-d]pyridazine] | 57.3
15 | CC(=O)c1ccc(-c2cc(Cn3cc4nc(-c5cccc(F)c5F)nc-4cn3)on2)cc1 [Compound 290, 1-(4-{5-[2-(2,3-Difluoro-phenyl)-imidazo[4,5-d]pyridazin-5-ylmethyl]-isoxazol-3-yl}-phenyl)-ethanone] | 95.2
16 | Fc1ccccc1-c1nc2cnn(Cc3nnc(-c4ccc(Cl)cc4)o3)cc-2n1 [Compound 291, 5-[5-(4-Chloro-phenyl)-[1,3,4]oxadiazol-2-ylmethyl]-2-(2-fluoro-phenyl)-5H-imidazo[4,5-d]pyridazine] | 22.5
17 | Fc1cccc(-c2nc3cnn(Cc4onc(-c5ccc(C(F)(F)F)cc5C(F)(F)F)c4Br)cc-3n2)c1F [Compound 292, 5-[3-(2,4-Bis-trifluoromethyl-phenyl)-4-bromo-isoxazol-5-ylmethyl]-2-(2,3-difluoro-phenyl)-5H-imidazo[4,5-d]pyridazine] | 64.1

Row | Compound | inhibition at 10 µM [%]
18 | Fc1cccc(-c2nc3cnn(Cc4cc(-c5ccc(Br)cc5C(F)(F)F)no4)cc-3n2)c1F [Compound 293, 5-[3-(4-Bromo-2-trifluoromethyl-phenyl)-isoxazol-5-ylmethyl]-2-(2,3-difluoro-phenyl)-5H-imidazo[4,5-d]pyridazine] | 99.7
19 | COc1ccc(-c2cc(Cn3cc4nc(-c5cccc(F)c5F)nc-4cn3)on2)c(OC)c1 [Compound 294, 2-(2,3-Difluoro-phenyl)-5-[3-(2,4-dimethoxy-phenyl)-isoxazol-5-ylmethyl]-5H-imidazo[4,5-d]pyridazine] | 50
20 | Fc1cccc(-c2nc3cnn(Cc4cc(-c5ccc(OCC(F)(F)F)cc5)no4)cc-3n2)c1F [Compound 295, 2-(2,3-Difluoro-phenyl)-5-{3-[4-(2,2,2-trifluoro-ethoxy)-phenyl]-isoxazol-5-ylmethyl}-5H-imidazo[4,5-d]pyridazine] | 100
21 | CCCOc1ccc(-c2cc(Cn3cc4nc(-c5cccc(F)c5F)nc-4cn3)on2)c(F)c1 [Compound 296, 2-(2,3-Difluoro-phenyl)-5-[3-(2-fluoro-4-propoxy-phenyl)-isoxazol-5-ylmethyl]-5H-imidazo[4,5-d]pyridazine] | 99.5
22 | COc1cc(OC(F)(F)F)ccc1-c1cc(Cn2cc3nc(-c4cccc(F)c4F)nc-3cn2)on1 [Compound 297, 2-(2,3-Difluoro-phenyl)-5-[3-(2-methoxy-4-trifluoromethoxy-phenyl)-isoxazol-5-ylmethyl]-5H-imidazo[4,5-d]pyridazine] | 90.8
23 | COc1ccc(-c2cc(Cn3cc4nc(-c5cccc(F)c5F)nc-4cn3)on2)c(OC(F)(F)F)c1 [Compound 298, 2-(2,3-Difluoro-phenyl)-5-[3-(4-methoxy-2-trifluoromethoxy-phenyl)-isoxazol-5-ylmethyl]-5H-imidazo[4,5-d]pyridazine] | 99.9
24 | Fc1ccc(F)c(-c2nc3cnn(Cc4cc(-c5ccc(C(F)(F)F)cc5C(F)(F)F)no4)cc-3n2)c1 [Compound 299, 5-[3-(2,4-Bis-trifluoromethyl-phenyl)-isoxazol-5-ylmethyl]-2-(2,5-difluoro-phenyl)-5H-imidazo[4,5-d]pyridazine] | 79.3
25 | CCCCc1ccc(-c2cc(Cn3cc4nc(-c5cccc(F)c5F)nc-4cn3)on2)cn1 [Compound 301, 5-[3-(6-Butyl-pyridin-3-yl)-isoxazol-5-ylmethyl]-2-(2,3-difluoro-phenyl)-5H-imidazo[4,5-d]pyridazine] | 97.3
26 | CCCCc1ccc(-c2cc(Cn3cc4nc(-c5cccc(F)c5F)nc-4cn3)on2)c(F)c1 [Compound 303, 5-[3-(4-Butyl-2-fluoro-phenyl)-isoxazol-5-ylmethyl]-2-(2,3-difluoro-phenyl)-5H-imidazo[4,5-d]pyridazine] | 99.8
27 | Cc1ccc(-c2cc(Cn3cc4nc(-c5cccc(F)c5F)nc-4cn3)on2)c(C(F)(F)F)c1 [Compound 304, 2-(2,3-Difluoro-phenyl)-5-[3-(4-methyl-2-trifluoromethyl-phenyl)-isoxazol-5-ylmethyl]-5H-imidazo[4,5-d]pyridazine] | 99.7
28 | CC(C)c1ccc(-c2cc(Cn3cc4nc(-c5cccc(F)c5F)nc-4cn3)on2)cc1 [Compound 305, 2-(2,3-Difluoro-phenyl)-5-[3-(4-isopropyl-phenyl)-isoxazol-5-ylmethyl]-5H-imidazo[4,5-d]pyridazine] | 99.4
29 | Fc1cccc(-c2nc3cnn(Cc4cc(-c5ccc(I)cc5)no4)cc-3n2)c1F [Compound 306, 2-(2,3-Difluoro-phenyl)-5-[3-(4-iodo-phenyl)-isoxazol-5-ylmethyl]-5H-imidazo[4,5-d]pyridazine] | 99.9
30 | Cc1ccc(-c2cc(Cn3cc4nc(-c5cccc(F)c5F)nc-4cn3)on2)c(C)c1 [Compound 309, 2-(2,3-Difluoro-phenyl)-5-[3-(2,4-dimethyl-phenyl)-isoxazol-5-ylmethyl]-5H-imidazo[4,5-d]pyridazine] | 100
31 | Cc1cc(C#Cc2ccc(-c3cc(Cn4cc5nc(-c6cccc(F)c6F)nc-5cn4)on3)cc2)cc(C)n1 [Compound 310, 2-(2,3-Difluoro-phenyl)-5-{3-[4-(2,6-dimethyl-pyridin-4-ylethynyl)-phenyl]-isoxazol-5-ylmethyl}-5H-imidazo[4,5-d]pyridazine] | 99.4
32 | Cc1cc(CCc2ccc(-c3cc(Cn4cc5nc(-c6cccc(F)c6F)nc-5cn4)on3)cc2)cc(C)n1 [Compound 311, 2-(2,3-Difluoro-phenyl)-5-(3-{4-[2-(2,6-dimethyl-pyridin-4-yl)-ethyl]-phenyl}-isoxazol-5-ylmethyl)-5H-imidazo[4,5-d]pyridazine] | 96.7
33 | COCCCOc1ccc(-c2cc(Cn3cc4nc(-c5cccc(F)c5F)nc-4cn3)on2)cc1 [Compound 312, 2-(2,3-Difluoro-phenyl)-5-{3-[4-(3-methoxy-propoxy)-phenyl]-isoxazol-5-ylmethyl}-5H-imidazo[4,5-d]pyridazine] | 98.1
34 | COc1ccc(-c2cc(Cn3cc4nc(-c5cccc(F)c5F)nc-4cn3)on2)c(F)c1 [Compound 313, 2-(2,3-Difluoro-phenyl)-5-[3-(2-fluoro-4-methoxy-phenyl)-isoxazol-5-ylmethyl]-5H-imidazo[4,5-d]pyridazine] | 99.2
